Data published in patent US10285989B2, “Pyrimidinone amide compounds as PDE2 inhibitors” (Merck Sharp & Dohme Corp., priority 2015, dated 2019).
Read-outs that look alike come from different tables or passages of the source.

What was measured:
[1] = molecular target: P-glycoprotein (P-gp) (Homo sapiens (Human), UniProt P08183); test: P-gp transport, experimental BA/AB ratio, human; format: in vitro ADME; details: LLC-PK1, 1 μM substrate concentration
Source text: (§1) See Doan et al. “Passive permeability and P-glycoprotein-mediated efflux differentiate central nervous system (CNS) and non-CNS marketed drugs”, J. Pharm. Exper. […] Desirable human BA/AB ratio is less than 2.0. […] See, for example, Desai, et al. Integration of in Silico and in Vitro Tools for Scaffold Optimization during Drug Discovery: Predicting P-glycoprotein Efflux” Mol. Pharmac.

[2] = molecular target: Rhesus PDE2A3 (Macaca mulatta, UniProt B3VTJ2); test: PDE2 fluorescence polarization (IMAP FP) inhibition assay, rhesus PDE2A3; format: biochemical, rhesus macaque
[3] = molecular target: P-glycoprotein (P-gp, rat Mdr1a) (Rattus norvegicus, UniProt Q6PSM0); test: P-gp transport, experimental BA/AB ratio, rat LLC-Mdr1a; format: in vitro ADME; details: LLC-PK1; rat LLC-Mdrla; 1 μM substrate concentration
Source text: as §1

[4] = molecular target: human PDE2A1 (Homo sapiens (Human), UniProt O00408); test: PDE2 IMAP FP inhibition assay, human PDE2A1 (selectivity panel format); format: biochemical
Outline: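 Enzyme dosed to give about 20% substrate turnover acts for 60 min at room temperature on 50 nM FAM-cAMP plus 1000 nM cGMP (Tris pH 7.2, MgCl2, DTT, Tween-20 buffer). IMAP binding solution then stops the reaction; after 1 h, polarization is measured from parallel and perpendicular fluorescence.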

[5] = Lab A, read-out: Rhesus PDE2 Ki (nM) - Lab A
[6] = Lab B, read-out: Rhesus PDE2 Ki (nM) - Lab B
[7] = Lab B, read-out: Human PDE2 Ki (nM) - Lab B
[8] = Lab A, read-out: Human PDE2 Ki (nM) - Lab A

Sequence of Rhesus PDE2A3 (B3VTJ2 1-941): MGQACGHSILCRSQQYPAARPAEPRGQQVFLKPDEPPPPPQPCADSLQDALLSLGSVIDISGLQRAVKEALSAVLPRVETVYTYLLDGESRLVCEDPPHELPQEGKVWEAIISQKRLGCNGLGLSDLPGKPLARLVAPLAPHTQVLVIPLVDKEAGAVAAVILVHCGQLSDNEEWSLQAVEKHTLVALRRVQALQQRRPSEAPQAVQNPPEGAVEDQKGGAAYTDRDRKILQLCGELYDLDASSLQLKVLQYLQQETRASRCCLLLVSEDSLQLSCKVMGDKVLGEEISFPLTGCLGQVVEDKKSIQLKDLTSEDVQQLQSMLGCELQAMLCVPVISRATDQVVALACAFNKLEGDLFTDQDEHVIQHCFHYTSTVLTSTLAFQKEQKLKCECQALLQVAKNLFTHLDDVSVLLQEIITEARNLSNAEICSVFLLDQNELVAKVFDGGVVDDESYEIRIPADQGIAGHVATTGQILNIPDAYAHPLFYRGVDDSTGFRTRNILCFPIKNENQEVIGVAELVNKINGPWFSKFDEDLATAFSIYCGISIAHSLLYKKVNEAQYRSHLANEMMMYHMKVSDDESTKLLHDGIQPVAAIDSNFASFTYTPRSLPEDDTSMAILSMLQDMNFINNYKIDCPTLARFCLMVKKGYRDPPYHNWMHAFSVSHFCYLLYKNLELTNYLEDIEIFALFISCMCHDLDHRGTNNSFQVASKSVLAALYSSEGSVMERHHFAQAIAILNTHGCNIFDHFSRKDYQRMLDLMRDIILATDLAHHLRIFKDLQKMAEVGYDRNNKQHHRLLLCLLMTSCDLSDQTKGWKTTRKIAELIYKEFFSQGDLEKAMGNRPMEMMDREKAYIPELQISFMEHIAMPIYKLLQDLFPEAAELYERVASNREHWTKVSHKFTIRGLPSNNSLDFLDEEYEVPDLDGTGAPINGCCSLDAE
Sequence of P-glycoprotein (P-gp, rat Mdr1a) (Q6PSM0 1-1272): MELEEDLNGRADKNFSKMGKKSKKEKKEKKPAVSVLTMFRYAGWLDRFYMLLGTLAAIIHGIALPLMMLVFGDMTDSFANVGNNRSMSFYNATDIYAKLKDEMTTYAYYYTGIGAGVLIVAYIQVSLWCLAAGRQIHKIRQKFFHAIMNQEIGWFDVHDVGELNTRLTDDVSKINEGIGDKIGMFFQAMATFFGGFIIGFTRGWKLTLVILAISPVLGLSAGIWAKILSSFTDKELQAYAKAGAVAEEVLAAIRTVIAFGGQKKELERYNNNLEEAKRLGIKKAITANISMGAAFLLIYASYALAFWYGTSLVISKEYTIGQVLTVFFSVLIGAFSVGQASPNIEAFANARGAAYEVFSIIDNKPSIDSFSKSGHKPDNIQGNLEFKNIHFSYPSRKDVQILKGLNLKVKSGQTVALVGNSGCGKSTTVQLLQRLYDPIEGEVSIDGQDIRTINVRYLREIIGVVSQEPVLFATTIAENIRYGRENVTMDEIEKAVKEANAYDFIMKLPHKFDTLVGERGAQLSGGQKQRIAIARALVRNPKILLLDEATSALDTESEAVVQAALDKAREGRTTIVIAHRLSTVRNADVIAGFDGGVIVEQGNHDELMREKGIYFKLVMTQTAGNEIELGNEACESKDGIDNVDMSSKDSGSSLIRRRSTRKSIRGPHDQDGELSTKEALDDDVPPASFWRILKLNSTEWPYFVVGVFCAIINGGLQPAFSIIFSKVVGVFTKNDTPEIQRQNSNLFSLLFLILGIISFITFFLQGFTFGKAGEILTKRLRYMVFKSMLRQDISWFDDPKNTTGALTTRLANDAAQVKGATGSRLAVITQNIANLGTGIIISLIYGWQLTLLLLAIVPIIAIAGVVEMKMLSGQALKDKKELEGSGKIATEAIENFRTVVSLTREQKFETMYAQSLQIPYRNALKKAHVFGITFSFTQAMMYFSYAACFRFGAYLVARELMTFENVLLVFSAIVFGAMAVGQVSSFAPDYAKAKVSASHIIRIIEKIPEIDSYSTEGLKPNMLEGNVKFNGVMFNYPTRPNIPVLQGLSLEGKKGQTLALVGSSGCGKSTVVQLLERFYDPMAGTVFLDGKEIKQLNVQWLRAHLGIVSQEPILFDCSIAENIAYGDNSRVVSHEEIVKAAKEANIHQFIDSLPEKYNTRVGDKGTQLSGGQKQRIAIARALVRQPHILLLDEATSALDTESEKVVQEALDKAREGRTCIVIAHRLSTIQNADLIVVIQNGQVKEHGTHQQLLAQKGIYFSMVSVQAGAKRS
Sequence of P-glycoprotein (P-gp) (P08183 whole entry): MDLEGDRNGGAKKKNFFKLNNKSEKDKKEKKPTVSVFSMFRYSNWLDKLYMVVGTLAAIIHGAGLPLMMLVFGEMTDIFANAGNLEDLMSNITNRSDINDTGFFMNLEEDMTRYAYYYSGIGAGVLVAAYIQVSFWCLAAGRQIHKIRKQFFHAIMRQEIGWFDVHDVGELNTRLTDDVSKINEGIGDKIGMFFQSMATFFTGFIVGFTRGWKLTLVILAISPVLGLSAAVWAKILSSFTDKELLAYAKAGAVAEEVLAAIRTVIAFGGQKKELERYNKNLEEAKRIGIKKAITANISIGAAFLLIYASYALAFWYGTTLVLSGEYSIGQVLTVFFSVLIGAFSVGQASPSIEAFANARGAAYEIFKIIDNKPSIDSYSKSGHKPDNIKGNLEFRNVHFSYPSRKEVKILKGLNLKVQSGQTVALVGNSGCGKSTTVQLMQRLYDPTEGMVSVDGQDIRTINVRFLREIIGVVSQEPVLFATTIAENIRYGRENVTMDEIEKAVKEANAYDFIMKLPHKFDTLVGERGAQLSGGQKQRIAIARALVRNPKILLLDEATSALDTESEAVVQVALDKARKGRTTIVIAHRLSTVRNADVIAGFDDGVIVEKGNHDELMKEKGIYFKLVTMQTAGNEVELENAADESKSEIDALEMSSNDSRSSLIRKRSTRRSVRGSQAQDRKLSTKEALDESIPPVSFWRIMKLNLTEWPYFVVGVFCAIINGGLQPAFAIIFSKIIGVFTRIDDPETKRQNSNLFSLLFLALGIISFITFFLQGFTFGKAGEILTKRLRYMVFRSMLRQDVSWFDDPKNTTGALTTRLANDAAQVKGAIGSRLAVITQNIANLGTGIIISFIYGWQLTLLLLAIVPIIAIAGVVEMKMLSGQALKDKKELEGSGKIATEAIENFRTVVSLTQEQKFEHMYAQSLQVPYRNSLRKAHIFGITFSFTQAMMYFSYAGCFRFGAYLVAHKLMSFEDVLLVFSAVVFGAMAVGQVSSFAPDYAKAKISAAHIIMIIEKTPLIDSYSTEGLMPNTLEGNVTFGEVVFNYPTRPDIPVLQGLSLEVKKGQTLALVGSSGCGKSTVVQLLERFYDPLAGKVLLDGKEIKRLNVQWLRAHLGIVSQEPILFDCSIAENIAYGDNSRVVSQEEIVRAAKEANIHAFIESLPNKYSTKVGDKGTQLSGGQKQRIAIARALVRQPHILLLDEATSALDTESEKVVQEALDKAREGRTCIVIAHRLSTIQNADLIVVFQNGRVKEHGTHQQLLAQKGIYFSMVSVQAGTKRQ
Sequence of human PDE2A1 (O00408 other isoform, or with tags, fused parts or gaps): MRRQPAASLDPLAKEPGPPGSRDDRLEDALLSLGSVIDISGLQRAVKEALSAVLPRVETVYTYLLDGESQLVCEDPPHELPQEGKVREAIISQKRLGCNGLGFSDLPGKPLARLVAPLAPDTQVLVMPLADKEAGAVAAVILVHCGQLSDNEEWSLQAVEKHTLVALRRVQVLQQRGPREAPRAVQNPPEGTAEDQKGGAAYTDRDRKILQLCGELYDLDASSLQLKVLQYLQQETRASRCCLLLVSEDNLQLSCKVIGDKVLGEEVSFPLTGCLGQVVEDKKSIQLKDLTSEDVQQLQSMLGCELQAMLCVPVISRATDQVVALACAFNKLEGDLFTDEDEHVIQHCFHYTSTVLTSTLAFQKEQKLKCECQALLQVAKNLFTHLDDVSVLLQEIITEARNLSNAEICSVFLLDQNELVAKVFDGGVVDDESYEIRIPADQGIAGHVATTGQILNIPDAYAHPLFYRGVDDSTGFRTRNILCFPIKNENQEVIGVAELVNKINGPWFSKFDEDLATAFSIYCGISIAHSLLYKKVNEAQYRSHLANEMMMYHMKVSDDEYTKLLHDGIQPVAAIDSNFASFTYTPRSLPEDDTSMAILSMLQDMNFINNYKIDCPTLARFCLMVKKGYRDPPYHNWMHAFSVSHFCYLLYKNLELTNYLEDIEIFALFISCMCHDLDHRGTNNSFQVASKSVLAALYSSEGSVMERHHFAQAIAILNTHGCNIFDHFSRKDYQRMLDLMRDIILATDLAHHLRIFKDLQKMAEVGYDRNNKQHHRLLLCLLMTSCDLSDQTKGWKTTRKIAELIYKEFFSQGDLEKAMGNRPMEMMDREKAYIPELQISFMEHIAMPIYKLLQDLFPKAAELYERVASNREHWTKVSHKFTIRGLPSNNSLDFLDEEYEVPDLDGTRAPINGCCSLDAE

| SMILES | efflux ratio at 1 μM [1] | Ki [2, 5] [nM] | Ki [2, 6] [nM] | efflux ratio at 1 μM [3] | Ki [4, 7] [nM] | Ki [4, 8] [nM] |
| --- | --- | --- | --- | --- | --- | --- |
| CN(C)c1nc(C(=O)N[C@@H](c2ccc(OC(F)(F)F)c(F)c2)C2CC2)cc(=O)[nH]1 [Example 110, N-{(1R)-cyclopropyl[3-fluoro-4-(trifluoromethoxy)phenyl]methyl}-2-(dimethylamino)-6-oxo-1,6-dihydropyrimidine-4-carboxamide] | 0.5 | 0.48 | 0.96 | 3.5 | 1.3 |  |
| CN(C)c1nc(C(=O)N[C@@H](c2ccc(SC(F)(F)F)cc2)C2CC2)cc(=O)[nH]1 [Example 111, N-[(R)-cyclopropyl{4-[(trifluoromethyl)sulfanyl]phenyl}methyl]-2-(dimethylamino)-6-oxo-1,6-dihydropyrimidine-4-carboxamide] | 0.3 | 0.41 | 0.8 | 2 | 0.9 |  |
| CC(C)[C@@H](NC(=O)c1cc(=O)[nH]c(N(C)C)n1)c1ccc(C(F)(F)F)c(F)c1 [Example 112, 2-(dimethylamino)-N-{(1R)-1-[3-fluoro-4-(trifluoromethyl)phenyl]-2-methylpropyl}-6-oxo-1,6-dihydropyrimidine-4-carboxamide] | 0.7 | 0.27 | 0.44 | 4.7 | 0.55 |  |
| O=C(N[C@@H](c1ccc(C2CC2)cc1)C1CC1)c1cc(=O)[nH]c(N2CCCC2)n1 [Example 113, N-[(R)-cyclopropyl(4-cyclopropylphenyl)methyl]-6-oxo-2-pyrrolidine-1-yl-1,6-dihydropyrimidine-4-carboxamide] | 0.4 | 0.36 | 0.65 | 3.9 | 0.63 |  |
| O=C(N[C@@H](c1ccc(OC(F)(F)F)cc1)C1CC1)c1cc(=O)[nH]c(N2CCCC2)n1 [Example 114, N-{(R)-cyclopropyl[4-(trifluoromethoxy)phenyl]methyl}-6-oxo-2-pyrrolidin-1-yl-1,6-dihydropyrimidine-4-carboxamide] | 0.5 | 0.94 | 1.5 | 4 | 1.5 |  |
| C[C@@H](NC(=O)c1cc(=O)[nH]c(N2CCCCC2)n1)c1ccc(C(F)(F)F)cc1 [Example 131, 6-oxo-2-piperidin-1-yl-N-{(1R)-1-[4-(trifluoromethyl)phenyl]ethyl}-1,6-dihydropyrimidine-4-carboxamide] | 0.3 | 32 |  | 1.5 |  | 24 |
| C[C@@H](NC(=O)c1cc(=O)[nH]c(N(C)C)n1)c1ccc(C(F)(F)F)cc1 [Example 133, 2-(dimethylamino)-6-oxo-N-{(1R)-1-[4-(trifluoromethyl)phenyl]ethyl}-1,6-dihydropyrimidine-4-carboxamide] | 0.5 | 2.5 | 2.8 | 1.8 | 2.3 | 2 |
| CNc1nc(C(=O)N[C@H](C)c2ccc(C(F)(F)F)cc2)cc(=O)[nH]1 [Example 135, 2-(methylamino)-6-oxo-N-{(1R)-1-[4-(trifluoromethyl)phenyl]ethyl}-1,6-dihydropyrimidine-4-carboxamide] | 2.7 | 36 |  | 11.4 |  | 27 |
| C[C@@H](NC(=O)c1cc(=O)[nH]c(NC2CCC2)n1)c1ccc(C(F)(F)F)cc1 [Example 138, 2-(cyclobutylamino)-6-oxo-N-{(1R)-1-[4-(trifluoromethyl)phenyl]ethyl}-1,6-dihydropyrimidine-4-carboxamide] | 1.2 | 67 |  | 29.8 |  | 38 |
| C[C@@H](NC(=O)c1cc(=O)[nH]c(N(C)C)n1)c1ccc(SC(F)(F)F)cc1 [Example 143, 2-(dimethylamino)-6-oxo-N-[(1R)-1-{4-[(trifluoromethyl)sulfanyl]phenyl}ethyl]-1,6-dihydropyrimidine-4-carboxamide] | 0.5 | 0.57 | 0.61 | 2.5 | 0.82 | 0.32 |
| CNc1nc(C(=O)N[C@H](C)c2ccc(SC(F)(F)F)cc2)cc(=O)[nH]1 [Example 144, 2-(methylamino)-6-oxo-N-[(1R)-1-{4-[(trifluoromethyl)sulfanyl]phenyl}ethyl]-1,6-dihydro-pyrimidine-4-carboxamide] | 3.3 | 5.7 |  | 14.2 |  | 3.4 |
| C[C@@H](NC(=O)c1cc(=O)[nH]c(N)n1)c1ccc(SC(F)(F)F)cc1 [Example 145, 2-amino-6-oxo-N-[(1R)-1-{4-[(trifluoromethyl)sulfanyl]phenyl}ethyl]-1,6-dihydro-pyrimidine-4-carboxamide] | 3.2 | 35 |  | 28.9 |  | 23 |
| C[C@@H](NC(=O)c1cc(=O)[nH]c(N2CCCC2)n1)c1ccc(SC(F)(F)F)cc1 [Example 146, 6-oxo-2-pyrrolidin-1-yl-N-[(1R)-1-{4-[(trifluoromethyl)sulfanyl]phenyl}ethyl]-1,6-dihydro-pyrimidine-4-carboxamide] | 0.9 | 0.43 |  | 5.4 |  | 0.36 |
| CC(C)[C@@H](NC(=O)c1cc(=O)[nH]c(N2CCCC2)n1)c1ccc(SC(F)(F)F)cc1 [Example 147, N-[(1R)-2-methyl-1-{4-[(trifluoromethyl)sulfanyl]phenyl}propyl]-6-oxo-2-pyrrolidin-1-yl-1,6-dihydropyrimidine-4-carboxamide] | 0.7 | 0.19 | 0.15 | 5.9 | 0.26 |  |
| CC(C)[C@@H](NC(=O)c1cc(=O)[nH]c(N2CCC2)n1)c1ccc(SC(F)(F)F)cc1 [Example 148, 2-azetidin-1-yl-N-[(1R)-2-methyl-1-{4-[(trifluoromethyl)sulfanyl]phenyl}propyl]-6-oxo-1,6-dihydropyrimidine-4-carboxamide] | 1.3 | 0.42 |  | 9.5 |  | 0.2 |
| CC(C)[C@@H](NC(=O)c1cc(=O)[nH]c(N(C)C)n1)c1ccc(SC(F)(F)F)c(F)c1 [Example 150, 2-(dimethylamino)-N-[(1R)-1-{3-fluoro-4-[(trifluoromethyl)sulfanyl]phenyl}-2-methylpropyl]-6-oxo-1,6-dihydropyrimidine-4-carboxamide] | 1.1 | 0.24 | 0.29 | 4.4 | 0.29 |  |
| CNc1nc(C(=O)N[C@@H](c2ccc(OC(F)(F)F)c(F)c2)C(C)C)cc(=O)[nH]1 [Example 151, N-{(1R)-1-[3-fluoro-4-(trifluoromethoxy)phenyl]-2-methylpropyl}-2-(methylamino)-6-oxo-1,6-dihydro-pyrimidine-4-carboxamide] | 6.5 | 4.7 |  | 18.7 |  | 2.8 |
| CC(C)[C@@H](NC(=O)c1cc(=O)[nH]c(N)n1)c1ccc(OC(F)(F)F)c(F)c1 [Example 152, 2-amino-N-{(1R)-1-[3-fluoro-4-(trifluoromethoxy)phenyl]-2-methylpropyl}-6-oxo-1,6-dihydropyrimidine-4-carboxamide] | 11.6 | 33 |  | 29.2 |  | 19 |
| CC(C)[C@@H](NC(=O)c1cc(=O)[nH]c(N)n1)c1ccc(SC(F)(F)F)cc1 [Example 154, 2-amino-N-[(1R)-2-methyl-1-{4-[(trifluoromethyl)sulfanyl]phenyl}propyl]-6-oxo-1,6-dihydropyrimidine-4-carboxamide] | 10.4 | 18 |  | 24.7 |  | 9.9 |
| CNc1nc(C(=O)N[C@@H](c2ccc(SC(F)(F)F)c(F)c2)C(C)C)cc(=O)[nH]1 [Example 155, N-[(1R)-1-{3-fluoro-4-[(trifluoromethyl)sulfanyl]phenyl}-2-methylpropyl]-2-(methylamino)-6-oxo-1,6-dihydropyrimidine-4-carboxamide] | 4.2 | 4.3 |  | 9 |  | 1.2 |
| CC(C)[C@@H](NC(=O)c1cc(=O)[nH]c(N)n1)c1ccc(SC(F)(F)F)c(F)c1 [Example 156, 2-amino-N-[(1R)-1-{3-fluoro-4-[(trifluoromethyl)sulfanyl]phenyl}-2-methylpropyl]-6-oxo-1,6-dihydropyrimidine-4-carboxamide] | 11.1 | 24 |  | 11.3 |  | 10 |
| C[C@@H](NC(=O)c1cc(=O)[nH]c(N2Cc3ccncc3C2)n1)c1ccc(C(F)(F)F)cc1 [Example 160, 2-(1,3-dihydro-2H-pyrrolo[3,4-c]pyridin-2-yl)-6-oxo-N-{(1R)-1-[4-(trifluoromethyl)phenyl]ethyl}-1,6-dihydropyrimidine-4-carboxamide] | 17.1 | 1.6 |  | 28.8 |  | 1 |
